For one assay, the target named is D2 receptor (Homo sapiens (Human), UniProt P14416). As to the kind of experiment: Radioligand binding assay ([3H]-spiperone) on membranes of HEK293 EBNA cells expressing human D2 receptor. Conditions: human receptor in HEK293 EBNA cells; 0.7 nM [3H]-spiperone.
A further assay concerns the target D3 receptor (Homo sapiens (Human), UniProt P35462). Kind of assay: Radioligand binding assay ([3H]-spiperone) on membranes of HEK293 EBNA cells expressing human D3 receptor. Conditions: read-out: D3 Ki; human receptor in HEK293 EBNA cells; 0.5 nM [3H]-spiperone.
For another assay, the target named is 5-HT2A receptor (Homo sapiens (Human), UniProt P28223). Kind of assay: Radioligand binding assay ([3H]-ketanserin) on membranes of HEK293 EBNA cells expressing human 5-HT2A receptor. As to conditions: read-out: 5HT2A Ki.
[1] abbreviates: human receptor in HEK293 EBNA cells, 1.1 nM [3H]-ketanserin.

Where two headings read alike, the source gives them in different places.

D2 receptor, sequence (P14416 whole entry): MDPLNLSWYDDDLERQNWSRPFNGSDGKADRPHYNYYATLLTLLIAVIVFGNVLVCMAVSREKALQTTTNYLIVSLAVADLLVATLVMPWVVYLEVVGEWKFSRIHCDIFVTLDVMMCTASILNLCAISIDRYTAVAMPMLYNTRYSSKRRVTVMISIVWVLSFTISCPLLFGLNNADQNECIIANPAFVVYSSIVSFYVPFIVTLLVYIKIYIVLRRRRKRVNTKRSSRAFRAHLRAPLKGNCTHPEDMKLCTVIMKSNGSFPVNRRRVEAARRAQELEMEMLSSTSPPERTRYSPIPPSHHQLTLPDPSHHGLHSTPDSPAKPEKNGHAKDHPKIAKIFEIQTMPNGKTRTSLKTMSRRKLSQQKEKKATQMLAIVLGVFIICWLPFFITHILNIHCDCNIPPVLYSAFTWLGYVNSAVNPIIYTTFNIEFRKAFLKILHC
D3 receptor, sequence (P35462 whole entry): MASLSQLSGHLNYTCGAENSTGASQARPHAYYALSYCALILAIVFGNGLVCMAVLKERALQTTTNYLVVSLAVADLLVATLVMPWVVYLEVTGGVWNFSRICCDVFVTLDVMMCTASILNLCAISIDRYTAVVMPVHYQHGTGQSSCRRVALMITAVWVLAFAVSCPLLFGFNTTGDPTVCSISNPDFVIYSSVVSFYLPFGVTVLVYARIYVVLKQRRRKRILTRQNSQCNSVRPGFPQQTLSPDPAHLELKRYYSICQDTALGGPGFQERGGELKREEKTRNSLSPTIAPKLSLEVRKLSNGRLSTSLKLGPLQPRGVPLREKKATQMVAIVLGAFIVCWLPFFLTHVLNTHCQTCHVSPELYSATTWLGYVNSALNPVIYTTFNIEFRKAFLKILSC
Description for D2 receptor: (§1) HEK293 EBNA cells were transiently transfected with expression plasmids encoding for the human D2 or D3 or for the human 5-HT2A receptor, respectively. The cells were harvested 48 h post-transfection, washed three times with cold PBS and stored at −80° C. prior to use. The pellet was suspended in cold 50 mM Tris-HCl buffer containing 10 mM EDTA (pH 7.4) and was homogenized with a Polytron (Kinematica AG, Basel, Switzerland) for 20-30 sec at 12.000 rpm. After centrifugation at 48.000×g for 30 min at 4° C., the pellet was resuspended in cold 10 mM Tris-HCl buffer containing 0.1 mM EDTA (pH 7.4), homogenized, and centrifuged as above. This pellet was further resuspended in a smaller volume of ice cold 10 mM Tris-HCl buffer containing 0.1 mM EDTA (pH 7.4) and homogenized with a Polytron for 20-30 sec at 12.000 rpm. The protein content of this homogenate was determined with the Bio-Rad (Bradford) Protein Assay (Biorad Laboratories GmbH, München, Germany) according to the instructions of the manufacturer using gamma globulin as the standard. This homogenate was stored at −80° C. in aliquots and thawed immediately prior to use.
(§2) Aliquots of membrane preparations were thawed at RT, resuspended in assay buffer (D2, D3: 50 mM Tris-HCl, 120 mM NaCl, 5 mM MgCl2, 1 mM EDTA, 5 mM KCl, 1.5 mM CaCl2, pH=7.4; 5-HT2A: 50 mM Tris-HCl, 10 mM MgCl2, 1 mM EGTA, pH=7.4), homogenized with a Polytron for 20-30 sec at 12.000 rpm and adjusted to a final concentration of approximately 7.5 μg protein/well (D2, D3) and 15 μg protein/well (5-HT2A), respectively.
(§3) The nonspecific binding was determined with equally composed reaction mixtures in the presence of 10 μM unlabelled spiperone. Per well 45 μl of Microscint 40 (Perkin Elmer, Schwerzenbach, Switzerland) was added, plates for sealed, shaken for 20 min and counted for 3 min on a Topcount Microplate Scintillation Counter (Can berra Packard SA, Ziirich, Switzerland) with quenching correction.
(§4) The CPM value for each duplicate of a concentration of competing compound was averaged (y1), then the % specific binding was calculated according to the equation (((y1−non-specific)/(total binding−non-specific))×100). Graphs were plotted with the % specific binding using XLfit, a curve fitting program that iteratively plots the data using Levenberg-Marquardt algorithm. The single site competition analysis equation used was y=A+((B−A)/(1+((x/C)D))), where y is the % specific binding, A is the minimum y, B is the maximum y, C is the IC50, x is the log 10 of the concentration of the competing compound and D is the slope of the curve (the Hill Coefficient). […] The affinity constant (K) was calculated using the Cheng-Prusoff equation Ki=(IC50/1+([L]/Kd), where [L] is the concentration of radioligand and Kd is the dissociation constant of the radioligand at the receptor as determined by the saturation isotherm.
Description for D3 receptor: as §1, §2, §3, §4

Regarding `CS(=O)(=O)N[C@H]1CC[C@H](CCN2CCC(c3cccc4c3OCO4)CC2)CC1` [Example 69, Trans-N-{4-[2-(4-Benzo[1,3]dioxol-4-yl-piperidin-1-yl)-ethyl]-cyclohexyl}-methanesulfonamide], the Ki at D2 receptor was found to be 414 nM; at D3 receptor it was 10.5 nM; on 5-HT2A receptor (setting [1]), 31.3 nM.
As for `CC1(C(=O)N[C@H]2CC[C@H](CCN3CCC(c4cccc5c4OCO5)CC3)CC2)COC1` [Example 62, 3-Methyl-oxetane-3-carboxylic acid-trans-N-{4-[2-(4-benzo[1,3]dioxol-4-yl-piperidin-1-yl)-ethyl]-cyclohexyl}-amide], the Ki at D2 receptor came out at 225 nM; on D3 receptor, 39 nM; at 5-HT2A receptor (setting [1]), 22.1 nM.
With `O=C(CC1(O)CCC1)N[C@H]1CC[C@H](CCN2CCC(c3cccc4c3OCO4)CC2)CC1` [Example 45, Trans-N-{4-[2-(4-Benzo[1,3]dioxol-4-yl-piperidin-1-yl)-ethyl]-cyclohexyl}-2-(1-hydroxy-cyclobutyl)-acetamide], the values for the Ki at D2 receptor, on D3 receptor and on 5-HT2A receptor were 262 nM, 6.41 nM and 26.8 nM, respectively.
`COCC(=O)N[C@H]1CC[C@H](CCN2CCC(c3cccc4c3OCO4)CC2)CC1` [Example 13, Trans-N-{4-[2-(4-Benzo[1,3]dioxol-4-yl-piperidin-1-yl)-ethyl]-cyclohexyl}-2-methoxy-acetamide]: the Ki on D2 receptor is 507 nM; at D3 receptor it was 18 nM; at 5-HT2A receptor, 14.6 nM.
Turning to `Cc1ccc(C(=O)N[C@H]2CC[C@H](CCN3CCC(c4cccc5c4OCO5)CC3)CC2)cn1` [Example 15, Trans-N-{4-[2-(4-Benzo[1,3]dioxol-4-yl-piperidin-1-yl)-ethyl]-cyclohexyl}-6-methyl-nicotinamide], the Ki worked out at 133 nM at D2 receptor, 11.6 nM at D3 receptor and 11.5 nM at 5-HT2A receptor (setting [1]).
Turning to `O=C(N[C@H]1CC[C@H](CCN2CCC(c3cccc4c3OCO4)CC2)CC1)C1CCCO1` (stereo partly drawn) [Example 46, Tetrahydro-furan-2-carboxylic acid-trans-{4-[2-(4-benzo[1,3]dioxol-4-yl-piperidin-1-yl)-ethyl]-cyclohexyl}-amide], the Ki at D2 receptor is 464 nM; at D3 receptor, 47.6 nM; at 5-HT2A receptor (setting [1]) it was 14.4 nM.
Regarding `O=C(N[C@H]1CC[C@H](CCN2CCC(c3cccc4c3OCO4)CC2)CC1)C1(O)CC1` [Example 49, 1-Hydroxy-cyclopropanecarboxylic acid-trans-{4-[2-(4-benzo[1,3]dioxol-4-yl-piperidin-1-yl)-ethyl]-cyclohexyl}-amide], the Ki is 245 nM at D2 receptor, 6.09 nM at D3 receptor and 8.17 nM on 5-HT2A receptor.
For the molecule `CO[C@@H](C)C(=O)N[C@H]1CC[C@H](CCN2CCC(c3cccc4c3OCO4)CC2)CC1` [Example 33, Trans-(S)—N-{4-[2-(4-Benzo[1,3]dioxol-4-yl-piperidin-1-yl)-ethyl]-cyclohexyl}-2-methoxy-propionamide], the values for the Ki on D2 receptor, on D3 receptor and on 5-HT2A receptor (setting [1]) were 464 nM, 50.3 nM and 29.1 nM, respectively.
For `CN(C)S(=O)(=O)N[C@H]1CC[C@H](CCN2CCC(c3cccc4c3OCO4)CC2)CC1` [Example 78, Trans-N-{4-[2-(4-benzo[1,3]dioxol-4-yl-piperidin-1-yl)-ethyl]-cyclohexyl}-N,N-dimethyl-sulfamide], in that order: 229 nM, 11.6 nM and 20.7 nM.
For the molecule `O=C(CC1CCOCC1)N[C@H]1CC[C@H](CCN2CCC(c3cccc4c3OCO4)CC2)CC1` [Example 53, Trans-N-{4-[2-(4-Benzo[1,3]dioxol-4-yl-piperidin-1-yl)-ethyl]-cyclohexyl}-2-(tetrahydro-pyran-4-yl)-acetamide], the values for the Ki at D2 receptor, at D3 receptor and at 5-HT2A receptor (setting [1]) were 352 nM, 8.81 nM and 29.6 nM, respectively.

For the origin of these results see patent US8598357B2, “Benzodioxole piperidine compounds” (Hoffmann-La Roche Inc., priority 2011, dated 2013).
